Measured values from US6579888B2, “Method and kit for treating illnesses” (Opt-e-scrip, Inc., priority 1994, dated 2003).

Experiments:
[1] = system: patients with the same disorder (hyperactive child); test: Pooled SPAS data and monthly follow-up of patients with the same disorder continued on methylphenidate; assay type: in vivo, human
Procedure: All results obtained from the data are then compared against the results provided by data amassed from a pool of about 200 patients with the same disorder. Of these 200 patients, 55 experienced encouraging results (as did the current patient) and were continued on 40 mg daily treatment. Of these 55 patients, 5 were lost to follow-up, with 50 remaining for prospective evaluation. Because the physician would now choose to continue the patient on 40 mg methylphenidate daily based solely on the isolated SPAS single patient drug trial results, they now take the opportunity of reviewing the pooled data on the 50 patients. This is done to understand under what circumstances this individual patient would likely continue to show benefit from methylphenidate 40 mg treatment, and what conditions lead to treatment failure.
The pool of 50 patients who continued treatment had the following scores following the original SPAS testing:
All 50 patients were followed up by telephone interview monthly for nine months or more, and outcomes were prospectively documented.

[2] = system: hyperactive child (Minimum Brain Dysfunction); test: SPAS single-patient random double-blind crossover trial of methylphenidate versus placebo
Procedure: In this example, the usefulness of methylphenidate (Ritalin) treatment in a hyperactive child (Minimum Brain Dysfunction) is evaluated.
Technology: Consists of instructions, “calendar” packaging for drug and a substantially identical looking placebo to assure appropriate dosing and monitor compliance, questionnaire assessment forms and instructions. […] Results are mailed to the physician and, in this case, parent for use in evaluating the usefulness of the therapy. The physician and parent are contacted, e.g., every three months to provide data on therapies utilized, and perceived outcome, until the condition resolves.
The questionnaire portion of the kit includes an initial consent form for the parent or guardian to complete. The questionnaire also provides background information on the study and possible side effects associated with the medication. Also included therein is a portion for providing relevant patient and family histories. More importantly, the questionnaire, in this case includes a portion for the weekly input by parents or guardian and school observers of answers to questions relating to the drug evaluation. Typical questionnaire sheet for these portions are shown below as Table 1 and Table 2. Physician questionnaires are similarly arranged.
The trial calls for 40 mg daily given at 10 mg four times daily compared to identical appearing placebo given four times daily.

hypertensive person = test: Six-week random double-blind trial of sustained release verapamil as therapeutic alternative to sustained release propranolol; assay type: in vivo, human; details: verapamil SR 240 mg once daily versus propranolol SR 180 mg once daily; end of six-week trial; statistically insignificant
Procedure: In this example, the validity of using a sustained release formulation of verapamil 240 mg once daily as a therapeutic alternative to sustained release propranolol 180 mg once daily in a hypertensive person is shown. The trial during which the two medications are randomly administered in a double-blind manner is six weeks. The questionnaire used is set up in a manner similar to that described in above examples except that the questions elicit information related to the disease of hypertension. Blood pressure is taken daily by the patient and weekly by the physician. Lab values and vision tests are also reported weekly by the physician. […] Both values are statistically insignificant and the therapeutic alternative selection is objectively validated.

[3] = patients with statistically altered sleep patterns, continued 40 mg daily
[4] = pool of 50 patients, original SPAS testing

Compound	outcome on continued treatment, patients with no statistically altered sleep disturbances ([1]; 40 mg daily, monthly follow-up for nine months or more)	outcome on continued treatment, patients with statistically altered sleep patterns ([1]; 40 mg daily, within two months)	discontinuation from treatment ([1]; all patients with a statistically altered sleep disturbance)	patients who experienced encouraging results and were continued on treatment ([1]; of a pool of about 200 patients, 40 mg daily) [patients]	patients who experienced a grand mal seizure [1, 3]	severe episodes of bizarre behaviors / severe adverse event [1, 3] [%]	Attention Span: patients who had substantial improvement ([1]; pool of 50 patients who continued treatment, original SPAS testing) [% had substantial]	Sleep Patterns: patients not statistically altered [1, 4] [% were not statistically]	Sleep Patterns: patients statistically altered [1, 4]	Teacher Comments: corroborate improved attention span [1, 4] [% corroborate improved]	Teacher Comments: did not corroborate improved attention span [1, 4] [% did not corroborate]	patient's attention span ([2]; 40 mg daily (10 mg four times daily), methylphenidate periods versus placebo periods)	teacher comments ([2]; 40 mg daily, methylphenidate dosing periods)	sleep patterns ([2]; 40 mg daily, methylphenidate periods)	mean diastolic pressure (hypertensive person)	mean systolic blood pressure increase (hypertensive person) [%]
COC(=O)C(c1ccccc1)C1CCCCN1 (stereo not shown) [methylphenidate]	continued to be well maintained on treatment	showed loss of symptom control	had to be discontinued from treatment within two months	55	two	90	100	50	50% were statistically altered	80	20	improved substantially	corroborate improved attention span	statistically altered	–	–
COc1ccc(CCN(C)CCCC(C#N)(c2ccc(OC)c(OC)c2)C(C)C)cc1OC (stereo not shown) [verapamil]	–	–	–	–	–	–	–	–	–	–	–	–	–	–	essentially stable	3
